Columns and labels:
[1] = system: STZ (130 mg/kg) diabetic pigs; experiment: Two-week oral metformin treatment of STZ diabetic pigs: postprandial plasma glucose and insulin, body weight, urinary glucose excretion; type: in vivo, pig
Protocol: (§1) Protocol 5: insulin-mediated whole body glucose disposal, after a two-week placebo or metformin (twice 1.5 g per day) oral treatment period under conditions of iso-energetic feeding, was studied with the hyperinsulinemic (2 mU/kg/minute) euglycemic clamp technique in 14 STZ (130 mg/kg) diabetic pigs.
Fasting blood samples were taken before the start of hyperinsulinemic clamp experiments and postprandial blood samples were taken two to three hours after a morning meal in the week following a clamp study.
Plasma insulin concentration was measured using a Delfia assay (test kit No. B080-1101 by Perkin Elmer Life Sciences, trust by Wallac Oy, Turku, Finland). This specific pig insulin assay was validated using pig insulin standards. Plasma and urine glucose concentrations were analyzed enzymically on an autoanalyzer of Radiometer (ABL and AML, Copenhagen, Denmark). Urine was collected in buckets containing 0.5 grams Halamid-d (sodium-p-toluenesulfonchloramide, Akzo Nobel Chemicals, Amersfoort, NL) to prevent microbial breakdown of glucose. Urine volume was registered over a given interval in order to calculate the rate of urinary glucose excretion. Urine samples (0.5 mL) were stored at −20° C. for later glucose analyses. Ketones (acetoacetic acid) were determined in fresh urine by a reagent strip test (Ketostix, Bayer Diagnostics, Mijdrecht, NL).

[2] = system: STZ (130 mg/kg) diabetic pigs; experiment: Hyperinsulinemic euglycemic clamp in STZ diabetic pigs after two-week metformin treatment; type: in vivo, pig
Protocol: as §1
After overnight fasting, at t=0 minute, insulin was administered as a prime—(17 or 34 mU/kg) continuous (1 or 2 mU/kg/minute) infusion for three hours in normal pigs. Simultaneously, a variable infusion of a 33% D-glucose solution was started and adjusted every ten minutes to maintain the plasma glucose concentration at euglycemic levels and a 6,6-^2H-glucose solution was given as a prime—(216 mg) continuous (3.6 mg/minute). Steady-state conditions were achieved within 90 minutes after initiation of the hyperinsulinemic clamp and steady-state calculations were carried out during the last hour of the clamp (t=120, 135, 150, 165 and 180 minutes). In hyperglycemic diabetic pigs, insulin was given as a prime—(34 or 136 mU/kg) continuous (2 or 8 mU/kg/minute) infusion for five hours. After reaching euglycemic levels, a variable infusion of a 33% D-glucose solution was started and adjusted every ten minutes to maintain the plasma glucose concentration at euglycemia. At t=2 hours, 6,6-^2H-glucose was administered as a prime— (216 mg) continuous (3.6 mg/minute) infusion for the last three hours of the clamp in diabetic pigs. Steady-state conditions were achieved during the last hour of the clamp and steady-state calculations were carried out at (t=240, 255, 270, 285 and 300 minutes).

rodent = rodent studies, relatively high doses (100 to 500 mg/kg); cited from earlier work
[3] = metformin twice 1.5 g per day oral, two weeks
[4] = after two weeks metformin, insulin 2 mU/kg/minute

CN(C)C(=N)N=C(N)N [Metformin, metformin]
Reduction in postprandial plasma glucose compared to placebo-treated pigs ([1]; after 14 days of metformin): 30% | Postprandial plasma glucose, before treatment ([1]; metformin group, baseline): 31.0 ± 5.8 mmol/L | Postprandial plasma insulin, before treatment ([1]; metformin group, baseline): 1 ± 0 mU/L | Postprandial plasma glucose, at end of treatment [1, 3]: 24.9 ± 2.2 mmol/L | Postprandial plasma insulin, at end of treatment [1, 3]: 3 ± 1 mU/L | Fasting plasma glucose ([2]; after two weeks metformin): 14.7 ± 1.5 mmol/L | Fasting plasma insulin ([2]; after two weeks metformin): 11 ± 6 mU/L | Fasting plasma insulin, range ([2]; after two weeks metformin): range (3-37) mU/L | Increase in insulin-stimulated whole body glucose disposal compared to placebo-treated diabetic pigs ([2]; after two weeks metformin): 60% | Reduction in fasting plasma glucose compared to placebo-treated diabetic pigs ([2]; after two weeks metformin): 24% | Steady-state clamp glucose infusion rate (whole body glucose disposal) [2, 4]: 9.4 ± 2.2 mg/kg/min | Steady-state clamp plasma glucose [2, 4]: 5.3 ± 0.3 mmol/L | Steady-state clamp plasma insulin [2, 4]: 42 ± 7 mU/L | Time to reach euglycemia in diabetic pigs [2, 4]: 105 ± 28 min | Steady-state clamp glucose infusion rate (whole body glucose disposal) ([2]; after two weeks metformin, insulin 2 mU/kg/minute, listed as metformin): 9.4 mg/kg/min | Whole body glucose disposal, metformin group compared to placebo group ([2]; similar insulin stimulation): 1.6 fold | Effect on glucose homeostasis (rodent): immediate (within days) effect

— patent US20070271620A1, “Animal model for type II diabetes mellitus and Syndrome X and methods and uses thereof” (priority 2005, published 2007)
